# Laboratory results taken from patent US7094760B2, “Peptides for treatment of inflammation and shock” (Salpep Biotechnology, Inc., priority 1996, dated 2006).
# How the values were obtained:
# [1] = test system: neutrophil influx into carrageenin-soaked sponge in rats; assay: neutrophil migration into carrageenin-soaked sponge; assay type: in vivo, rat
# Description: The subcutaneous implantation of a carrageenin-soaked sponge in rats is a model used to evaluate agents that modulate neutrophil chemotaxis, as carrageein is a potent chemotactic agent and the sponge serves as a collecting reservoir.
# Under halothane anaesthesia the sponge was removed from its subcutaneous site and the fluid was squeezed from it into a test tube. Following centrifugation at 2,000 g for 10 min, the exudate was decanted and the remaining cells were suspended in 4 ml of 0.9% saline, and their number determined using a Coulter Counter. One ml of the remaining cell suspension was extracted for use in the superoxide assay.
# Intravenous injections of SGP-T inhibited neutrophil influx into a carrageenin-soaked sponge in a dose-dependent manner (FIG. 4). When the ability of neutrophils obtained from the carrageenin-soaked sponges to generate superoxide anion was evaluated, those obtained from saline-treated rats were totally refractory to f MLP and phorbol myristate acetate (PMA).
# [2] = test system: isolated jejunal segments from egg albumin-sensitised rats; assay: antigen-induced contraction of isolated jejunal segments, Examples 3 and 6; design: species or system rat
# Description: SGP-T, at doses as low as 6.8×10^−7M, reduced antigen induced contractions of these isolated intestinal tissues by 60% (data not shown).
# Analogues and fragments of SGP-T were tested for their ability to inhibit antigen (egg albumin)-induced intestinal contractions, using isolated jejunal segments from egg albumin-sensitised rats, as described in Example 3.
# [3] = test system: LPS (Salmonella typhosa)-induced hypotension in unoperated rats; assay: endotoxin (LPS)-induced hypotension, unoperated rats; assay type: in vivo, rat
# Description: The animal model of endotoxic shock used involves intravenous injection of endotoxin (3.5 mg/kg of lipopolysaccharide (LPS) from Salmonella typhosa) into pentobarbital-anaesthetized Sprague-Dawley rats, to produce a fall in mean arterial blood pressure within 3 to 5 minutes. The endotoxin was injected slowly over 1 min. via the jugular vein, and mean arterial blood pressure in mm mercury (MABP) was monitored continuously for 60 min, with the average blood pressure being calculated at 15, 30, 45 and 60 min. Studies were performed on unoperated rats and rats with their submandibular glands removed (sialadenectomized).
# The results shown in Table 1 are the averages of three different experiments using the protocol defined above. The data shown represent the average decrease in MABP (dec MABP) and the % Decrease in MABP over the 60 minutes following LPS administration. SGP-S (100μg/kg) and SGP-T (100 μg/kg) were administered 90 min. before LPS. […] Neither SGP-T nor SGP-S, when given prior to the LPS challenge, had appreciable effects on MABP.
# Overall, SGP-T reduced by 60% the decrease and the percent decrease in MABP induced by endotoxin, relative to pre-LPS values. SGP-S, on the other hand, had no effect on the shock induced by endotoxin in unoperated rats.
# The dose-response relationship of the inhibitory effect of SGP-T and SGP-S on endotoxin-induced hypotension was also examined and the results are shown in FIG. 1.
# [4] = test system: ovalbumin-sensitized Hooded-Listar rats; assay: anaphylactic perturbation of intestinal motility, Example 9; assay type: in vivo, rat; conditions: intravenously at 100 μg/kg, 20 min before challenge
# Description: Animals and Tissue Preparation: Male Hooded-Listar rats were sensitized to egg albumin (ovalbumin; OA). Two weeks after sensitization, the animals had electrodes implanted into the muscle of the jejunum for recording muscle electrical activity. One week later, the fasted rats received SGP-T or an analogue, either intravenously (injection via penile vein under halothane anaesthesia) or orally (via gastric tube), 20 min before challenge with OA, or bovine serum albumin as control, by intragastric administration.
# The disruption of intestinal migrating myoelectric complexes (MMCs) (Scott et al., (1988), J. Physiol., v. 255, pp. G505–511), a measure of intestinal activity, and the presence of diarrhea were used as biological measurements of anaphylaxis.
# [5] = test system: rats sensitized to hen egg albumin; assay: intestinal anaphylaxis (diarrhoea, disrupted MMCs), egg albumin-sensitized rats, Example 3; assay type: in vivo, rat; conditions: intravenously
# Description: SGP-T was also effective in preventing intestinal anaphylaxis.
# [6] = test system: jejunal segments from ovalbumin-sensitized rats; assay: antigen-induced jejunal segment contraction, URE/OA ratio, Example 7; design: species or system rat
# Description: Animals and Tissue Preparation: Male Sprague-Dawley rats were sensitized to egg albumin (ovalbumin, OA) with 50 ng of Pertussis bordetella toxin as an adjuvant. Four to six weeks after sensitization, the rats were anaethetised with sodium pentobarbital and the jejunum was removed. Two cm sections of the jejunum were mounted in tissue baths under 0.75 g of isometric tension, and the tissues were allowed to equilibrate for 20 min prior to beginning the experiment.
# 10 μg of SGP-T or one of its analogues or fragments was added to a bath, while control tissues received the saline vehicle. Following a 10 min incubation, 100 ng of OA prepared in 0.9% saline was added. After the tissue had reached a maximal contractile response, the tissues were washed extensively to remove OA and peptide and, after the tissues had established baseline tension, 20 μg of urecholine (URE; a cholinergic-muscarinic receptor agonist) was added to determine the maximal contractile response of the tissue. The tissues were then removed from the bath, cleared of all underlying mucosa and the weight of the remaining muscle was determined.
# Data Analysis: The tension (measured in grams) per gram tissue weight generated by each tissue in response to OA and URE was calculated. To normalize for differences in the ability of each tissue segment to contract in response to the muscle stimulants, the contractile response to […]. Thus, a measure of the antigen-induced contraction was expressed as the URE/OA ratio.
# The data was analyzed using the one-way analysis of variance (ANOVA) and differences between groups was determined using the Student t-test for unpaired samples. The results are shown in FIGS. 7 and 8 and Tables 3 and 4.
# [7] = peptide 100 μg/kg 90 min before LPS 3.5 mg/kg iv
substance,measurement,setting,value
"NH2-Thr-Asp-Ile-Phe-Glu-Gly-Gly-COOH (H-TDIFEGG-OH) [SGP-T, submandibular gland peptide T, TDIFEGG]",neutrophil influx into a carrageenin-soaked sponge,[1]; intravenous injections,inhibited
same,inhibition of neutrophil migration,"[1]; rat, in vivo",approximately 50%
same,Biological Activity = inhibition of antigen-induced jejunal contraction by test peptide,[2],+++ (+++ = highest inhibition (~60%))
same,reduction of antigen induced contractions of isolated intestinal tissues,[2]; doses as low as 6.8×10^−7M,60%
same,effect on drop in MABP / shock induced by endotoxin,[3],reduced the drop in MABP
same,optimal dose for reducing LPS-induced hypotension,[3],higher than in operated animals
same,% Dec = percent decrease in MABP relative to MABPbef,[3]; [7],−11.6%
same,MABPaft = average MABP for 60 mins after LPS injection,[3]; [7],99.6 ± 3.8 mm Hg
same,dec MABP = decrease in MABP after LPS relative to MABPbef,[3]; [7],−13.6 ± 2.9 mm Hg
same,reduction of the decrease and the percent decrease in MABP induced by endotoxin,[3]; relative to pre-LPS values,60%
same,intestinal anaphylaxis induced by OA,[4],prevented or reduced
same,manifestation of anaphylaxis,[5]; 100 μg/kg,totally prevented
same,"anaphylactic reactions (diarrhoea, disruption of MMCs)",[5]; doses as low as 10 μg/kg,significantly attenuated
same,reduction of the anaphylactic reaction,[6]; 10 μg of peptide,more than 50%
same,URE/OA,"[6]; Table 4, 10 μg peptide, 100 ng OA, 20 μg urecholine, saline 5.7 ± 1.0",13.9 ± 5.6
